According to EP1220845B1, “ARYL-SULFONAMIDE SUBSTITUTED BENZIMIDAZOL DERIVATIVES AND USE OF SAID AS TRYPTASE INHIBITORS” (Boehringer Ingelheim Pharma GmbH & Co.KG, priority 1999, dated 2001):
Where a name gives a salt, the structure may show the parent alone.

Molecular target: T1, rh beta Tryptase (Homo sapiens, UniProt Q15661)
T1 construct: purchased Promega
Assay: Tryptase inhibition test (cleavage of chromogenic substrate, p-nitroaniline read at 405 nm)
Format: biochemical
Conditions: Tris HCl buffer 100 mM, calcium 5 mM, heparin, pH 7.4, 37°C; substrate N-p-Tosyl-Gly-Pro-Lys-para-nitroanilin 0.6 mM; 5 min preincubation, 5 min incubation; 0.91 U/ml enzyme
Experimental: Die erfindungsgemäßen Verbindungen zeichnen sich durch ihre Tryptase-inhibierende Wirksamkeit aus. Besagte Fähigkeit, die Tryptase zu inhibieren, wurde gemäß der nachfolgenden Testbeschreibung untersucht. Die Bestimmung wird in Tris HCI Puffer (100 mM), der zusätzlich Calcium (5 mM) und Heparin ([…]) enthält, bei pH 7.4 durchgeführt. Als Standard wird rh beta Tryptase eingesetzt, die beispielsweise von Promega käuflich zu erwerben ist. Als Substrat dient N-p-Tosyl-[…]-nitroanilin in einer Konzentration von 0.6 mM. Das Substrat wird durch Tryptase verdaut wobei p-Nitroanilin entsteht, das bei 405 nm gemessen werden kann. Üblicherweise wird eine Inkubationszeit von 5 Minuten und eine Inkubationstemperatur von 37°C gewählt. Als Enzymaktivität werden 0.91 U/ml eingesetzt. Die Bestimmung erfolgt in einem Autoanalyser (Cobas Bio) der Firma Hofmann LaRoche. Die potentiellen Hemmsubstanzen werden in Konzentrationen von 10 μM im Screening eingesetzt, wobei die Hemmung der Tryptase in Prozent angegeben wird. […] Nach 5-minütiger Vorinkubation der potentiellen Hemmsubstanzen, wird das Substrat zum […] Reaktion zugegeben, wobei die Bildung von p-Nitroanilin […]. […]

T1 sequence (Q15661 31-275): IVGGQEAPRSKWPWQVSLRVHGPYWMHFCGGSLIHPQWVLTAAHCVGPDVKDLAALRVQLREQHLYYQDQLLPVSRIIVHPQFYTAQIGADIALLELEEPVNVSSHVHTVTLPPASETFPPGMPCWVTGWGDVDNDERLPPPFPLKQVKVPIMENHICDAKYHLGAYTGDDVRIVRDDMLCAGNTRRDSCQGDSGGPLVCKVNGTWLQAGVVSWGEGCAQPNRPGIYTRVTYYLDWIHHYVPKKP

IC50: 11 nM
Structure (SMILES): CCN(CC)CCN(c1ccc2c(c1)nc(CCc1ccc(C(=N)N)cc1)n2C)S(=O)(=O)c1cccc2c(N(C)C)cccc12 [Beispiel 2, N-{2-[2-(4-Amidinophenyl)ethyl]-1-methyl-benzimidazol-5-yl}-N-diethylaminoethyl-(dansylamid)-dihydrochlorid]
